Reference: publication PMC7896091, “Synthesis of novel phytol-derived γ-butyrolactones and evaluation of their biological activity” (Scientific Reports, 2021)
Values belong to the compound of their own block, whether it stands above or below them.

Assays:
MV4-11 cells = assay: Antiproliferative activity, MTT assay; assay type: cell-based, human
Description: (§1) Human biphenotypic B myelomonocytic leukemia MV4-11, human colon cancer LoVo cell line and normal mouse fibroblast BALB/3T3 cells were obtained from American Type Culture Collection (Rockville, Maryland, USA), human lung carcinoma A549 cells were obtained from European Collection of Authenticated Cell Cultures (UK). All the cell lines are being maintained at the Hirszfeld Institute of Immunology and Experimental Therapy, PAS, Wroclaw, Poland and were cultured according the procedure described before.
(§2) Cell lines were cultured according to the protocol described before. MV4-11 cells were cultured in RPMI 1640 medium (Gibco, UK) with 1.0 mM sodium pyruvate, and 10% fetal bovine serum (FBS) (all from Sigma-Aldrich, Germany). A549, LoVo and LoVo/DX cells were cultured in RPMI 1640 + Opti-MEM (1:1) (both from Gibco, UK) supplemented with 5% fetal bovine serum, 1.0 mM sodium pyruvate (LoVo and LoVo/DX cells) (all from Sigma Aldrich Germany) and 0.1 μg/mL doxorubicin chloride (Accord) (only LoVo/DX cells). BALB/3T3 cells in Dulbecco medium (IIET, Poland) supplemented with 10% fetal bovine serum (Sigma-Aldrich, Germany). All culture media were supplemented with 2 mM L-glutamine (Sigma-Aldrich, Germany), 100 units/mL penicillin, and 100 µg/mL streptomycin (both from Polfa Tarchomin S.A., Poland). All cell lines were grown at 37 °C with 5% CO2 humidified atmosphere.
(§3) The solutions of the compounds (50 mM) were prepared by dissolving the substances in DMSO (Sigma Aldrich, Germany). Then the tested compounds were diluted in culture medium to reach the final concentrations of 625, 125, 25 and 5 μM. Before adding of the tested compounds (24 h prior), the cells were plated in 96-well plates (Sarstedt, Germany) at a density of 1 × 10^4 or 0.5 × 10^4 (A549) cells per well. The assay was performed after 72 h of exposure to 625, 125, 25 and 5 μM of the tested agents. The in vitro cytotoxic effect of all agents was examined using the MTT (MV4-11) or SRB assay, described previously. The results were calculated as an IC50 (inhibitory concentration 50%) the concentration of tested agent, which is cytotoxic for 50% of the cancer cells. Each compound in each concentration was tested in triplicate in a single experiment, which was repeated 3–5 times.

LoVo/DX cells = assay: Antiproliferative activity, SRB assay, doxorubicin resistant subline; assay type: cell-based, human
Description: Cell lines were cultured according to the protocol described before. […] All culture media were supplemented with 2 mM L-glutamine (Sigma-Aldrich, Germany), 100 units/mL penicillin, and 100 µg/mL streptomycin (both from Polfa Tarchomin S.A., Poland). All cell lines were grown at 37 °C with 5% CO2 humidified atmosphere. The solutions of the compounds (50 mM) were prepared by dissolving the substances in DMSO (Sigma Aldrich, Germany). […] The in vitro cytotoxic effect of all agents was examined using the MTT (MV4-11) or SRB assay, described previously. […] Each compound in each concentration was tested in triplicate in a single experiment, which was repeated 3–5 times.

BALB/3T3 cells = assay: Toxicity towards normal fibroblasts, SRB assay; assay type: cell-based; details: normal mouse fibroblasts, 72 h exposure, mean ± SD, n.a = no activity in concentration of 5, 25, 125, 625 μM
Description: as §1, §2, §3

LoVo cells = assay: Antiproliferative activity, SRB assay; assay type: cell-based, human; details: for IC50: 72 h exposure, SRB, mean ± SD, n.a = no activity in concentration of 5, 25, 125, 625 μM
Description: as §1, §2, §3

A549 cells = assay: Antiproliferative activity, SRB assay; assay type: cell-based, human
Description: as §1, §2, §3

Myzus persicae [1] = assay: Aphid settling (choice test) on treated vs control leaves of Brassica rapa subsp. pekinensis; assay type: in vivo; details: 0.1% solution in 70% ethanol, mean (± SD), n = 8, 20 aphids/replicate
Description: (§4) The peach potato aphids Myzus persicae (Sulzer) and the Chinese cabbage Brassica rapa subsp. pekinensis (Lour.) Hanelt were reared in laboratory at 20 °C, 65% r.h., and L16:8D photoperiod. One to seven days old apterous females of M. persicae and 3-week old plants with 4–5 fully developed leaves were used for experiments. M. persicae were obtained from the laboratory culture maintained at the Department of Botany and Ecology for many generations since 2000. All experiments were carried out under the same conditions of temperature, relative humidity, and photoperiod. The bioassays were started at 10–11.a.m. Each compound was dissolved in 70% ethanol to obtain the recommended 0.1% solution[40]. All compounds were applied on the adaxial and abaxial leaf surfaces by immersing a leaf in the ethanolic solution of a given compound for 30 s.[20]. Control leaves of similar size were immersed in 70% ethanol that was used as a solvent for the studied compounds. Experiments were performed 1 h after the compounds application to allow the evaporation of the solvent. Every plant and aphid were used only once.
This bioassay allows the study of aphid host preferences under semi-natural conditions. In the present study, aphids were given free choice between control and treated excised leaves that were placed in a Petri dish. Aphids were placed in the dish equidistance from treated and untreated leaves, so that aphids could choose between treated (on one half of a Petri dish) and control leaves (on the other half of the dish). […] Each experiment was replicated 8 times (n = 8 replicates, 20 viviparous apterous females/replicate). Aphids that were moving or not on any of the leaves were not counted.
The data of the choice-test were analyzed using Student’s t-test (STATISTICA 13.1. package). […] If aphids settled mainly on the control leaf (p < 0.05), the compound tested in the respective choice-test was stated a deterrent. From the data thus obtained the relative index of deterrence (DI) was calculated: DI = (C − T/C + T) where C was the number of aphids settled on control leaf, T was the number of aphids settled on the leaf treated with the tested compound. The value of DI ranged between 1 (ideal deterrent) and − 1 (ideal attractant)[41].

Myzus persicae [2] = assay: EPG monitoring of aphid probing and feeding (no-choice test); assay type: in vivo; details: 8-h EPG
Description: as §4
Aphid probing and the phloem sap uptake by M. persicae was monitored using the technique of electronic registration of aphid probing in plant tissues, known as EPG (= Electrical Penetration Graph), that is frequently employed in insect–plant relationship studies considering insects with sucking-piercing mouthparts[42]–[44]. In this experimental set-up, aphid and plant are connected to electrodes and thus made parts of an electric circuit, which is completed when the aphid inserts its stylets into the plant. Weak voltage is supplied in the circuit, and all changing electric properties are recorded as EPG waveforms that can be correlated with aphid activities and stylet position in plant tissues[45],[46]. The parameters describing aphid behaviour during probing and feeding, such as total time of probing, proportion of phloem patterns E1 and E2, number of probes, etc., are good indicators of plant suitability or interference of probing by chemical or physical factors in individual plant tissues[44]–[46]. In the present study, aphids were attached to a golden wire electrode with conductive silver paint (epgsystems. eu) and starved for 1 h prior to the experiment. Probing behaviour of 12 apterous females/studied compound and control was monitored for 8 h continuously with Giga-4 and Giga-8 DC EPG with 1 GΩ of input resistance recording equipment (EPG Systems, Wageningen, The Netherlands). Each aphid was given access to a freshly prepared plant and each aphid/plant combination was used only once. Various behavioural phases were labelled manually using the Stylet + software (www.epgsystems.eu). The following aphid behaviours were distinguished: no penetration (waveform 'np' – aphid stylets outside the plant), pathway phase—penetration of non-phloem tissues (waveforms 'ABC'), phloem phase (salivation into sieve elements, waveform ‘E1’ and ingestion of phloem sap, waveform ‘E2’), and xylem phase (ingestion of xylem sap, waveform 'G'). Waveform ‘G’ occurred rarely irrespective of the treatment. Therefore, in all calculations the xylem phase was added to the pathway phase and termed as probing in non-phloem tissues. The E1/E2 transition patterns were included in E2. Waveform patterns that were not terminated before the end of the experimental period (8 h) were not excluded from the calculations. The parameters derived from EPG recordings were analyzed according to their frequency and duration in configuration related to activities in peripheral and vascular tissues.
All statistical calculations related to data of the no-choice test were performed using StatSoft, Inc. (2014) STATISTICA (data analysis software system), version 12, www.statsoft.com. […]

[3] = tested on: caspase-3/7 in MV4-11 cells; assay: Caspase-3/7 activity determination (Ac-DEVD-ACC substrate); assay type: cell-based, human; details: MV4-11, 75 µM, 72 h
Description: Caspase-3/7 activity determination was performed according to the protocol previously described. The MV4-11 cells were seeded at the density of 1 × 10^5 cells/mL of culture medium on 24-well plates (Sarstedt, Germany) to the final volume of 2 mL. The cells were exposed to the test compounds at concentrations 75 μM or campthothecin (0.05 μg/mL) as a positive control, for 72 h. After 72 h of the incubation, the cells were collected and centrifuged (5 min., 4 °C, 250×g). Cells were suspended in 50 µL of ice-cold lysis buffer (50 mM HEPES, 10% (w/v) sucrose, 150 mM NaCl, 2 mM EDTA, 1% (v/v) Triton X-100, pH 7.3, IIET, Poland) and incubated 30 min. at 4 °C. After the incubation, 40 µL of each sample was transferred to a white, 96-well plate (Corning, USA) containing 160 µL of the reaction buffer (20 mM HEPES, 10% sucrose, 100 mM NaCl, 1 mM EDTA, 10 mM DTT, 0.02% Trition X-100, pH 7.3) (IIET, Wroclaw, Poland) with 9 µM Ac-DEVD-ACC fluorogenic substrate (λex = 360 nm, λem = 460 nm). The fluorescence increase correlated with the caspase-3/7 level was continuously recorded at 37 °C for 120 min using a Biotek Synergy H4 (Biokom, Warsaw, Poland). Compounds were tested in duplicates in single experiment and each experiment was repeated at least three times independently. Results were normalized to the number of cells in each well and are reported as mean relative caspase-3/7 activity compared to untreated control sample ± SD.

[4] = 72 h exposure, SRB, mean ± SD, n.a = no activity in concentration of 5, 25, 125, 625 μM
[5] = 0.1% solution, mean ± SE, n = 12
[6] = activities in non-phloem tissues, mean ± SE, n = 10-12
[7] = activities in sieve elements, mean ± SE, n = 10-12

SMILES: N.N.[Cl][Pt][Cl] [Cisplatin, reference compound]
IC50 (MV4-11 cells; 72 h exposure, MTT, mean ± SD, n.a = no activity in concentration of 5, 25, 125, 625 μM): 2.88 ± 0.83 µM | Selectivity index SI, MV4-11 (MV4-11 cells; SI = IC50 BALB/3T3 / IC50 MV4-11): 1.54 | IC50 (LoVo/DX cells; [4]): 3.45 ± 1.01 µM | IR (index of resistance) (LoVo/DX cells; IR = IC50 against resistant LoVo/DX / IC50 against non-resistant LoVo, 0 < IR < 2 able to overcome drug resistance): 0.62 | Selectivity index SI, LoVo/DX (LoVo/DX cells; SI = IC50 BALB/3T3 / IC50 LoVo/DX): 1.29 | IC50 (BALB/3T3 cells): 4.44 ± 2.36 µM | IC50 (LoVo cells): 5.55 ± 0.12 µM | Selectivity index SI, LoVo (LoVo cells; SI = IC50 BALB/3T3 / IC50 LoVo): 0.80 | IC50 (A549 cells; [4]): 3.97 ± 1.08 µM | Selectivity index SI, A549 (A549 cells; SI = IC50 BALB/3T3 / IC50 A549): 1.12

IC50 (LoVo cells; Homo sapiens, LoVo): 0.12 ± 0.01 µM
SMILES: COc1cccc2c1C(=O)c1c(O)c3c(c(O)c1C2=O)C[C@@](O)(C(=O)CO)C[C@@H]3O[C@H]1C[C@H](N)[C@H](O)[C@H](C)O1 [Doxorubicin]

SMILES: C=CC(C)(CCCC(C)CCCC(C)CCCC(C)C)CC(=O)OCC (stereo not shown) [compound 2, ethyl 3,7,11,15-tetramethyl-3-vinylhexadecanoate]
Mean number of aphids settled on treated (test) leaf (Myzus persicae [1]; 1 h after access): 10.8 (± 1.7) | Mean number of aphids settled on treated (test) leaf (Myzus persicae [1]; 2 h after access): 8.9 (± 0.9) | Mean number of aphids settled on treated (test) leaf (Myzus persicae [1]; 24 h after access): 9.6 (± 1.6) | Mean duration of probing (C + G + E) (Myzus persicae [2]; [5]): 1.4 ± 0.6 h | Number of probes (Myzus persicae [2]; [5]): 17.6 ± 4.1 | Total duration of pathway (C) (Myzus persicae [2]; [5]): 4.7 ± 0.8 h | Total duration of phloem phase (E) (Myzus persicae [2]; [5]): 2.4 ± 0.8 h | Total duration of probing (C + G + E) (Myzus persicae [2]; [5]): 7.3 ± 0.2 h | Number of probes before first phloem phase (Myzus persicae [2]; [6]): 14.9 ± 4.1 | Time from first probe to first phloem phase (Myzus persicae [2]; [6]): 2.9 ± 0.8 h | Duration of first phloem phase (Myzus persicae [2]; [7]): 2.0 ± 0.8 h | Total duration of phloem salivation E1 (Myzus persicae [2]; [7]): 2.4 ± 1.2 min | Total duration of phloem sap ingestion E2 (Myzus persicae [2]; [7]): 2.4 ± 0.8 h | Number of probes < 3 min (Myzus persicae [2]; before first phloem phase, mean ± SE, n = 10-12): 9.1 ± 2.7 | Proportion of salivation in phloem phase (Myzus persicae [2]; (duration of E1 / duration of E1 + E2)*100): 7.9% | Proportion of phloem phase in total probing (Myzus persicae [2]; index = duration of phloem phase E / duration of probing C + G + E): 32.0% | Increase of caspase-3/7 activity compared to the control [3]: about 1.5 times
